Laboratory results reported in article PMC12454603 (Archives of Toxicology, 2025).
Where “and” joins values, the source holds several entries; their conditions need not be identical. Equal values may be shown once.

What was measured:
ES-D3 cells = assay: ES-D3 cell cytotoxicity (WST-1 viability) assay of the mEST; assay type: cell-based, mouse; conditions: 1-day and 5-day cytotoxicity, ES-D3 cells
Procedure: The viability of the ES-D3 cells following 1-day and 5-day exposure to the test compounds was measured with the WST-1 assay. To this end, 100 µL cell suspension was seeded in the inner 60 wells of 96-well plates at a concentration of 2 × 10^5 cells/ml for 1-day exposure and 10^4 cells/ml for 5-day exposure and incubated at 37 °C with 5% CO2 for 24 h. After 24 h, 100 µL exposure medium with 0.25% DMSO and the required concentration of the test compounds, solvent control, and positive control were added to the cells in triplicate. The plates were incubated at 37 °C with 5% CO2 for 1 day or 5 days until measurement. After the exposure period, 20 µL of the cell proliferation reagent WST-1 were added to each well that contained cells and the cells were incubated for 3 h at 37 °C with 5% CO2. The absorbance of each plate was measured at 440 nm and 620 nm with a SpectraMax iD3 (San Jose, USA).
The concentration–response data for the test compounds in the mEST were presented in three curves including curves for 1-day cytotoxicity, 5-day cytotoxicity, and 10-day differentiation assays. The obtained curves were fitted using the inhibition equation log (inhibitor) vs response (three parameters) option using GraphPad Prism software 5.0 (California, USA).

rat liver S9 [1] = assay: Sulfation of 3-OH-8-MBaP in incubations with rat liver S9; assay type: in vitro ADME
Procedure: (§1) The conjugation of 3-OH-8-MBaP by sulfation was studied in incubations with rat liver S9 in vitro. The incubation time and S9 protein concentration were optimized to ascertain linearity of the sulfation reaction with respect to time and amount of protein. The 200 µL incubation mixture consisted of (final concentrations) […] Tris buffer (pH 7.4), 0.1 mg/ml rat liver S9, 0.2 mM PAPS and 0–100 µM 3-OH-8-MBaP. No metabolites were detected in control incubations without either rat liver S9 or co-factor PAPS. After 1-min pre-incubation of the incubation mixture without substrate, the reaction was initiated by adding substrate from a 100 times concentrated stock solution in DMSO (final concentration 1% DMSO (v/v)). The incubation mixture was incubated at 37 °C for 70 min after which 100 µL ice-cold acetonitrile was added to the incubation mixture to terminate the reaction. The incubation mixture was subsequently centrifuged at 3717g at 4 °C for 5 min. The supernatant was collected for subsequent UPLC analysis.
(§2) An Acquity UPLC system with a photodiode array (PDA) detector was used to quantify the metabolites formed in the glucuronidation and sulfation incubations. The supernatants of the incubation samples were injected onto an Acquity UPLC BEH® C18 column ([…], 1.7 µm, Waters, Milford, MA). The total running time per sample was 22 min with a flow rate of 0.6 ml/min. The temperature of column and auto sampler was 40 °C and 10 °C, respectively. The injection volume was 3.5 µL and the detection wavelength ranged from 190 to 400 nm. Two eluents were used including A (nanopure with 0.1% (v/v) TFA) and B (acetonitrile with 0.1% (v/v) TFA). The gradient elution started from 90% A and 10% B applied from 0.0 min to 0.5 min, which was changed to 10% A and 90% B from 0.5 to 15.5 min and then kept at 10% A and 90% B from 15.5 min to 18.5 min, and changed back to 90% A and 10% B from 18.5 to 22.0 min. Metabolites were quantified as previously described in our study on microsomal metabolism of BaP and several of its methyl substituted analogs (Wang et al [2022]).
(§3) The concentration of the glucuronidated and sulfated metabolites was further used to calculate the velocity of the enzymatic reaction expressed in nmol/min/mg S9 protein. The curve reflecting the substrate (3-OH-8-MBaP) concentration-dependent velocity of the metabolite formation was fitted by the Michaelis–Menten equation using GraphPad Prism 5 (California, USA). The kinetic constants derived included the Km (µM) and Vmax (nmol/min/mg S9 protein).
(§4) 3-OH-8-MBaP was subsequently modeled to be conjugated by glucuronidation and sulfation in the liver. The kinetic constants for these conjugation reactions were determined in incubation experiments described in Sect. […] The scaling factors from rat liver microsomes and rat liver S9 to the whole liver were 45 mg microsomal protein/g liver and 125 mg S9 protein/g liver, respectively (Houston and Galetin [2008]).

[2] = as above; assay type: in vitro ADME; conditions: rat, rat liver S9, pH 7.4, rat liver S9, PAPS
Procedure: as §1, §2, §3, §4

rat liver S9 [3] = assay: Glucuronidation of 3-OH-8-MBaP in incubations with rat liver S9; assay type: in vitro ADME
Procedure: (§5) The conjugation of 3-OH-8-MBaP with glucuronic acid was studied in incubations with rat liver S9 in vitro. The incubation time and S9 protein concentration were optimized to ascertain linearity of glucuronidation with time and the amount of S9 protein. The incubation was performed with a 200 µL mixture in glass vials, and consisted of (final concentrations) […] Tris buffer (pH 7.4), 0.1 mg/ml pooled rat liver S9, 3 mM UDPGA, 5 mM MgCl2, 0.025 mg/ml alamethicin, and 0–100 µM 3-OH-8-MBaP. No metabolites were formed in control incubations without either rat liver S9 or co-factor UDPGA. The final concentration of substrate vehicle (DMSO) in the incubation mixture was 1% (v/v). The incubation mixtures without substrate were pre-incubated at 37 °C for 1 min. The reaction was initiated by adding substrate to the incubation mixtures that were subsequently incubated at 37 °C for 20 min, after which the reaction was terminated by adding 100 µL ice-cold acetonitrile. The incubation mixture was subsequently centrifuged at 3717g at 4 °C for 5 min. The supernatant was collected for ultra-performance liquid chromatography (UPLC) analysis.
as §2, §3, §4

[4] = as above; assay type: in vitro ADME; conditions: rat, pooled rat liver S9, pH 7.4, rat liver S9, UDPGA
Procedure: as §5, §2, §3, §4

[5] = scaled to whole liver, liver weight 9.1 g
[6] = scaled with 125 mg S9 protein/g liver

In the case of `Cc1ccc2c(c1)cc1ccc3c(O)ccc4ccc2c1c43` [3-OH-8-MBaP, 3-Hydroxy-8-methyl-benzo[a]pyrene], the “Cytotoxicity accompanying the inhibition of differentiation” value (ES-D3 cells) is reported as “without accompanying cytotoxicity”, the Km (rat liver S9 [1]; rat liver S9, PAPS) is reported as 26.1 µM and the “Vmax, sulfation of 3-OH-8-MBaP” value (rat liver S9 [1]; rat liver S9, PAPS) is reported as 0.15 nmol/min/mg S9 protein and 0.15^e nmol/min/mg S9 protein. For the same molecule, the “Scaled Vmax, sulfation of 3-OH-8-MBaP” value (rat liver S9 [1]; [5]) was 10 µmol/h/liver, the “Scaled Vmax, sulfation of 3-OH-8-MBaP” value (rat liver S9 [1]; [6]) was 1.16 µmol/h/g liver and the Km at 70 min [2] was 26 µM. For the same molecule, the Km (rat liver S9 [3]; rat liver S9, UDPGA) was 15.6 µM, the “Vmax, glucuronidation of 3-OH-8-MBaP” value (rat liver S9 [3]; rat liver S9, UDPGA) was 6.92 nmol/min/mg S9 protein and 6.92^e nmol/min/mg S9 protein and the “Scaled Vmax, glucuronidation of 3-OH-8-MBaP” value (rat liver S9 [3]; [5]) was 470 µmol/h/liver. For the same molecule, the “Scaled Vmax, glucuronidation of 3-OH-8-MBaP” value (rat liver S9 [3]; [6]) was 51.9 µmol/h/g liver and the Km at 20 min [4] was 16 µM.
